# Literature values, collected in patent US11660375B2, “Product and method for the treatment of bioprosthetic tissues” (Epygon, priority 2017, dated 2023).
# Read-outs that look alike come from different tables or passages of the source.
# How the values were obtained:
# [1] = oral administration; IPCS, WHO Food Additives Series 32
# [2] = test system: pericardium samples pretreated with 0.6% Glutaraldehyde; settings: after 6 months implantation, juvenile rats, subcutaneous
# [3] = at 25° C.
# [4] = test system: porcine aortic valve cusps; settings: rat subdermal, 60 days, pretreatment pH 7.4 for 24 hours
# [5] = test system: Porcine aortic valve bioprostheses; settings: sheep, 150 days, leaflet calcium
molecule,measurement,setting,value
OC[C@H]1O[C@@H]2O[C@H]3[C@H](O)[C@@H](O)[C@@H](O[C@H]4[C@H](O)[C@@H](O)[C@@H](O[C@H]5[C@H](O)[C@@H](O)[C@@H](O[C@H]6[C@H](O)[C@@H](O)[C@@H](O[C@H]7[C@H](O)[C@@H](O)[C@@H](O[C@H]8[C@H](O)[C@@H](O)[C@@H](O[C@H]1[C@H](O)[C@H]2O)O[C@@H]8CO)O[C@@H]7CO)O[C@@H]6CO)O[C@@H]5CO)O[C@@H]4CO)O[C@@H]3CO [β-Cyclodextrin],acceptable daily intake,[1],5 mg/kg of body weight
same,toxicity on parenteral administration,,nephrotoxic
OC[C@H]1O[C@H](O[C@H]2[C@H](O)[C@@H](O)[C@@H](OC[C@H]3O[C@@H]4O[C@H]5[C@H](O)[C@@H](O)[C@@H](O[C@H]6[C@H](O)[C@@H](O)[C@@H](O[C@H]7[C@H](O)[C@@H](O)C(O[C@H]8[C@H](O)[C@@H](O)[C@@H](O[C@H]9[C@H](O)[C@@H](O)[C@@H](O[C@H]%10[C@H](O)[C@@H](O)[C@@H](O[C@H]3[C@H](O)[C@H]4O)O[C@@H]%10CO)O[C@@H]9CO)O[C@@H]8CO)O[C@@H]7CO)O[C@@H]6CO)O[C@@H]5CO)O[C@@H]2CO)[C@H](O)[C@@H](O)[C@@H]1O [Maltosyl β-Cyclodextrin],toxicity on parenteral administration,,appear to be safe
"CCCCCCCC/C=C\CCCCCCCC(=O)OCCOCC(OCCO)C1OCC(OCCO)C1OCCO (stereo not drawn) [surfactant, Tween 80]",calcium content,[2],42.9±12.7 μg/mg dry tissue
2-hydroxypropyl β-Cyclodextrin [HP p-CD],toxicity on parenteral administration,,don't show any toxicity
same,toxicity on parenteral administration,listed as 2-hydroxypropyl β-Cyclodextrin,appear to be safe
Sulphated β-Cyclodextrin,toxicity on parenteral administration,,appear to be safe
Sulfobutyl Ether7 β-Cyclodextrin [SBE7 β-CD],water solubility,[3],~70 g/100 ml
same,toxicity on parenteral administration,,appear to be safe
"OC[C@H]1O[C@@H]2O[C@H]3[C@H](O)[C@@H](O)[C@@H](O[C@H]4[C@H](O)[C@@H](O)[C@@H](O[C@H]5[C@H](O)[C@@H](O)[C@@H](O[C@H]6[C@H](O)[C@@H](O)[C@@H](O[C@H]7[C@H](O)[C@@H](O)[C@@H](O[C@H]1[C@H](O)[C@H]2O)O[C@@H]7CO)O[C@@H]6CO)O[C@@H]5CO)O[C@@H]4CO)O[C@@H]3CO [α-Cyclodextrins, α-Cyclodextrin]",toxicity on parenteral administration,,don't show any toxicity
OC[C@H]1O[C@@H]2O[C@H]3[C@H](O)[C@@H](O)[C@@H](O[C@H]4[C@H](O)[C@@H](O)[C@@H](O[C@H]5[C@H](O)[C@@H](O)[C@@H](O[C@H]6[C@H](O)[C@@H](O)[C@@H](O[C@H]7[C@H](O)[C@@H](O)[C@@H](O[C@H]8[C@H](O)[C@@H](O)[C@@H](O[C@H]9[C@H](O)[C@@H](O)[C@@H](O[C@H]1[C@H](O)[C@H]2O)O[C@@H]9CO)O[C@@H]8CO)O[C@@H]7CO)O[C@@H]6CO)O[C@@H]5CO)O[C@@H]4CO)O[C@@H]3CO [γ-Cyclodextrin],toxicity on parenteral administration,,appear to be safe
CCO [Ethanol],Ca,porcine aortic cusps,13.3+/−5.6 μg/mg tissue
"CCO [60% Ethanol, Ethanol]",calcium level,[4]; listed as 60.0% Ethanol,28.5±12.0 μg/mg tissue
"CCO [80% Ethanol, Ethanol]",Ca,[5],5.22 ± 2.94
same,calcium level,[4]; listed as 80.0% Ethanol,1.87±0.29 μg/mg tissue
